Consider 6 molecules from publication PMC6327030 (Nature Communications, 2019).

The term Km denotes the substrate concentration at which the rate is half of its maximum. The term ΔTm denotes the change in melting temperature against a reference sample. A word on the IC50: it is the concentration that inhibits the measured activity by half. By inhibition is commonly meant the change of the read-out against control, counted positive when it falls.

Assay [1] addresses T1, endogenous SQLE in human liver microsomes (Homo sapiens, UniProt Q14534).
T1 construct: human liver microsomes (HLM) which have the advantage of providing endogenous SQLE; tissue Sekisui Xenotech, LLC, Kansas City, KS; host or cells: human liver microsomes
Put plainly: HLM assay of SQLE activity (human liver microsomes, LC-MS/MS). It counts as biochemical. As for the experimental part: All biochemistry assay buffers contained 100 mM Tris, 0.1% triton X-100, 1 mM EDTA, 0.1 mM FAD and 1 mM NADPH. […] The reaction was quenched by adding 100 μL of 10 mM ammonium acetate buffer, followed by addition of 600 μL ethyl acetate containing 0.4 mg/mL butylated hydroxytoluene (BHT) to prevent oxidation. The mixture was vortexed for 30 min to extract 2,3-oxidosqualene, then centrifuged at 4000 rpm for 10 min. The supernatant was transferred to a new plate for LC-MS/MS detection. […] Kinetic analysis for HLMs (Sekisui Xenotech, LLC, Kansas City, KS) was performed as for baculosomes, with HLM concentration at 0.5 mg/ml. […] (Sigma-Aldrich). […] An aliquot of 7.5 μL was injected into the UPLC-MS/MS system. The instrument setup consisted of an AB Sciex API-6500 Mass Spectrometer (AB Sciex, USA) equipped with a Waters UPLC Acquity (Waters, USA). […] Formic acid in water (0.1%, v/v, mobile phase A) and a mixture of acetonitrile and isopropanol (80:20, v/v with 0.1% formic acid, mobile phase B) were employed as the mobile phase. An isocratic elution of 98% mobile phase B was used and run time was 1.5 min. The flow rate of mobile phase was set at 0.6 mL/min.
(Liver microsomes are a subcellular fraction often used to study metabolism.)

Assay [2] deals with T2, SQLE (118-488) (Homo sapiens, UniProt Q14534).
T2 construct: Thermal shift assay fluorescence signals obtained for SQLE (118-488), with and without FAD; made in house; host or cells: Rosetta (DE3) E. coli
T2 sequence (Q14534 118-488): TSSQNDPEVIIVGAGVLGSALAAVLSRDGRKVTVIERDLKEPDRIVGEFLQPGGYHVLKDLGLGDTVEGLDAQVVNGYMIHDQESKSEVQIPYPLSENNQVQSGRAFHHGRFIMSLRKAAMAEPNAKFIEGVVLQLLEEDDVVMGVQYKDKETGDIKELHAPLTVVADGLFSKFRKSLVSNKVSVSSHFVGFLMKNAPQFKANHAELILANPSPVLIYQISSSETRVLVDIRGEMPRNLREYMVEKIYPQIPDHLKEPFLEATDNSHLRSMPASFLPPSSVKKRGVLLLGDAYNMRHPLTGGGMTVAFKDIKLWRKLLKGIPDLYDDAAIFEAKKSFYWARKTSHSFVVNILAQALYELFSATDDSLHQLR
In words: Thermal shift assay, SQLE (118-488). The class given is binding. Conditions: 100 μM ligands. The procedure: (§1) Thermal shift assays were performed in 96-well PCR plates using an RT-PCR instrument (ABI 7500 Fast, Applied Biosystems, USA). Standard assay conditions (20 μL) contain 12.5 μL protein (1 mg/mL) in storage buffer 50 mM Tris (pH 8.0), 500 mM NaCl, 5% glycerol and 100 μM corresponding ligands, 5 μL Protein Thermal Shift^TM buffer, and 2.5 μL of the ROX dye (8 × , Protein Thermal Shift^TM Dye Kit, Applied Biosystems, USA). All experiments were performed in triplicate and reaction mixtures were pre-incubated at 4 °C for 1 h. […] For the detergent screening, the SQLE protein was buffer exchanged to 500 mM NaCl, 50 mM Tris-HCl (pH 8.0) containing different detergents using Superdex^TM 200 Increase 10/300 GL gel-filtration column (GE Healthcare, USA) and assayed as described above.

The target of assay [3] is T3, SQLE (118–574) (Homo sapiens, UniProt Q14534).
T3 construct: to the N-terminally truncated SQLE (118–574), resulting in the selection of this construct for further studies; His6-MBP (TEV site) (N, cleaved yes); made in house; host or cells: Rosetta (DE3) E. coli
T3 sequence (Q14534 118-574): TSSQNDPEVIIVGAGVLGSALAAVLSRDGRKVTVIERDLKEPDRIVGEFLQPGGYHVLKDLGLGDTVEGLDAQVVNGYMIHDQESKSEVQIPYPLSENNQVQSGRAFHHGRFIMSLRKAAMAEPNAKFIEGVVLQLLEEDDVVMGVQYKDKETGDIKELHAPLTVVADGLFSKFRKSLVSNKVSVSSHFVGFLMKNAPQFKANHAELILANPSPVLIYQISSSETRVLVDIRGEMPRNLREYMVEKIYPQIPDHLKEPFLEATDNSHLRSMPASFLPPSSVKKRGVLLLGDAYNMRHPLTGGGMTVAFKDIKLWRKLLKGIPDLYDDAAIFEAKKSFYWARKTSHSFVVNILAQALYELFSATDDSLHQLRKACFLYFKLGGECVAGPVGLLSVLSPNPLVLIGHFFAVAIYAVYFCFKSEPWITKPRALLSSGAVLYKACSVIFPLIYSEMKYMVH
Put plainly: Thermal shift assay, N-terminally truncated SQLE (118–574). It counts as binding. Conditions: 100 μM ligands. As for the experimental part:
as §1

Assay [4] deals with T4, baculosome-derived full-length SQLE (Homo sapiens, UniProt Q14534).
T4 construct: we overexpressed full-length SQLE in Sf9 cells using a baculovirus system; made in house; host or cells: Sf9 insect cells (baculovirus), membrane preparation (baculosomes)
T4 sequence (Q14534 whole entry): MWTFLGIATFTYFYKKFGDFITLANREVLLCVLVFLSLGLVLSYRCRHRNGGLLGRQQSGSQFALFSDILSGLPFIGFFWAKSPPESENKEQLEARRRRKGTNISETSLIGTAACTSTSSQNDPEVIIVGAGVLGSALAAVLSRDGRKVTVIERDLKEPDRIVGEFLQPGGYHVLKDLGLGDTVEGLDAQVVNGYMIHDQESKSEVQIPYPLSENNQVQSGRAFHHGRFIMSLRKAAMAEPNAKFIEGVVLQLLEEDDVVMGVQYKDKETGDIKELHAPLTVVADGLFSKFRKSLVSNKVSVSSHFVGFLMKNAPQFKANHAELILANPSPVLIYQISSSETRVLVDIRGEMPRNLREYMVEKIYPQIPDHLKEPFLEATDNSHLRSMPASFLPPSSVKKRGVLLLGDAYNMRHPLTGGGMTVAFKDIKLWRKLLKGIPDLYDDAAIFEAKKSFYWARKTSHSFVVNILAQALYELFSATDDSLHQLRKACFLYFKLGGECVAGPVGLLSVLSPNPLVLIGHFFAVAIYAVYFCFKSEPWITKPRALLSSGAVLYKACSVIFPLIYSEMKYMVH
In words: Biochemistry assay of SQLE activity with SQLE baculosomes (LC-MS/MS detection of 2,3-oxidosqualene). It counts as biochemical. As to conditions: for mechanism of inhibition with respect to squalene substrate: squalene varied from 50 to 0.39 μM, fixed inhibitor concentrations. As for the experimental part:
pFastBac1-SQLE was transformed into DH10Bac E. coli (Thermo Fisher) for transposition into bacmid, and positive clones were selected on a blue/white LB agar plate. Recombinant bacmid as isolated from positive clones with the PureLink Hipure Plasmid DNA miniprep kit (Thermo Fisher) and transfected into Sf9 cells (Thermo Fisher) to generate recombinant virus stocks, which were amplified further before Sf9 infection at a multiplicity of infection of two. Infected cells were harvested 72 h post infection and resuspended in phosphate buffered saline, then disrupted by sonication. The cell lysate was clarified by centrifugation at 1500× g for 10 min, the supernatant was further centrifuged at 10,000× g for another 10 min to remove cell debris; and then the supernatant was harvested and centrifuged at 100,000× g for 90 min. The pellet of SQLE baculosomes was collected and homogenized in the buffer (50 mM potassium phosphate, 20% Glycerol, pH7.0) by micro-electric homogenizer (IKA Works, Germany). The protein concentration was determined by the Bradford method. SQLE baculosomes were aliquoted and stored at −80 ℃. The abundance of SQLE in the baculosomes compared to other subcellular fractions was evaluated by immunoblotting against the N-terminal his-tag. Y195A, and Y195F mutant baculosomes were prepared as described above from Sf9 cells infected with engineered viruses.
All biochemistry assay buffers contained 100 mM Tris, 0.1% triton X-100, 1 mM EDTA, 0.1 mM FAD and 1 mM NADPH. […] The reaction was quenched by adding 100 μL of 10 mM ammonium acetate buffer, followed by addition of 600 μL ethyl acetate containing 0.4 mg/mL butylated hydroxytoluene (BHT) to prevent oxidation. The mixture was vortexed for 30 min to extract 2,3-oxidosqualene, then centrifuged at 4000 rpm for 10 min. The supernatant was transferred to a new plate for LC-MS/MS detection. […] Kinetic analysis for HLMs (Sekisui Xenotech, LLC, Kansas City, KS) was performed as for baculosomes, with HLM concentration at 0.5 mg/ml. Kinetic analysis for recombinant SQLE was performed as for baculosomes, with the addition of 1.5 μg/ml recombinant P450R (Sigma-Aldrich).
Samples were dried down under nitrogen and then reconstituted with 70 μL of 0.2 mg/mL BHT in acetonitrile. An aliquot of 7.5 μL was injected into the UPLC-MS/MS system. The instrument setup consisted of an AB Sciex API-6500 Mass Spectrometer (AB Sciex, USA) equipped with a Waters UPLC Acquity (Waters, USA). The UPLC separation was performed on an ACQUITY UPLC BEH C18 (2.1 × 50 mm, 1.7 µm, Waters) at 40 ℃. Formic acid in water (0.1%, v/v, mobile phase A) and a mixture of acetonitrile and isopropanol (80:20, v/v with 0.1% formic acid, mobile phase B) were employed as the mobile phase. An isocratic elution of 98% mobile phase B was used and run time was 1.5 min. The flow rate of mobile phase was set at 0.6 mL/min.

Assay [5] concerns the target T5, recombinant N-terminally truncated SQLE (118–574) (Homo sapiens, UniProt Q14534).
T5 construct: First, we used the recombinant N-terminally truncated SQLE (118–574); His6-MBP (TEV site) (N, cleaved yes); made in house; host or cells: Rosetta (DE3) E. coli
Put plainly: Enzymatic assay with recombinant SQLE (118–574) plus recombinant P450R. The class given is biochemical. Conditions: saturating squalene, varied FAD. The text has this: The cDNA of human SQLE (NCBI accession number: NM_003129.3) was cloned into pET28a expression vector (Supplementary Table 2). Multiple constructs were designed with six unique N-termini (starting at 1, 101, 111, 118, 124, 144) and four C-termini (ending at 488, 518, 543, 574), along with different affinity/solubilization tags expressed in Rosetta (DE3) E. coli (Shanghai Weidi Biotechnology). Soluble proteins were obtained for four of the expression constructs with N- and C-terminal boundaries corresponding to 101-574, 118-574, 101-488, and 118-488 and were used in crystallization trials. The His6-MBP-TEV-SQLE (118-574) construct in pET28a vector yielded crystals for structure determination. A detergent screen performed using thermal shift assay led to the identification of 3-[(3-cholamidopropyl)dimethylammonio]-1-propanesulfonate (CHAPS) as having the most stabilizing effect. CHAPS detergent was subsequently used for all extraction, purification and crystallization studies of SQLE protein. The plasmid bearing the sequence encoding SQLE was transformed into Rosetta (DE3) E. coli. Cells were grown at 37 °C and induced with 1 mM isopropyl β-D-1-thiogalactopyranoside for about 20 h at 15 °C in Luria Broth media. […] Protein was determined to be > 95% pure by SDS-PAGE and eluted as a monomer as assessed by SEC. […]

In assay [6] the test system is human SQLE. Conditions: cited from earlier work; for IC50: previously reported.
Where [7] appears, read: IC50, time-dependent inhibition, before increasing incubation time, compound incubation time varied from 0 to 6 h, starting value, 15 min reaction.
[8] abbreviates: baculosome-derived SQLE, 1 h pre-incubation, 100 μM squalene, read-out: IC50.
Where [9] appears, read: compound incubation time varied from 0 to 6 h.

Where two headings read alike, the source gives them in different places.

T1 sequence (Q14534 whole entry): as above
T5 sequence (Q14534 118-574): as the sequence (Q14534 118-574) above

Consider `Cc1cc2nc3c(=O)[nH]c(=O)nc-3n(C[C@H](O)[C@H](O)[C@H](O)COP(=O)(O)OP(=O)(O)OC[C@H]3O[C@@H](n4cnc5c(N)ncnc54)[C@H](O)[C@@H]3O)c2cc1C` [FAD, flavin adenosine dinucleotide], for which the Michaelis constant (Km) in assay [1] (HLMs, saturating squalene, varied FAD) was 9.6 ± 0.5 µM; in assay [4] (SQLE baculosome, saturating squalene, varied FAD), 8.1 ± 0.6 µM; in assay [5], 5.2 ± 0.5 µM. Moreover, the ΔTm in assay [2] (Supplementary Figure 1c) worked out at 4.7 °C; in assay [3] (Supplementary Figure 1c), 2.1 °C. The “mean Tm” value in assay [2] (control Tm 44.0) came to 48.7 °C; in assay [3] (control Tm 48.0) it was 50.1 °C.

As for `CCN(CC#CC#CC(C)(C)OC)Cc1cccc(OC[Si](C)(C)c2ccccc2C)c1` [Cmpd-4′′], the 50% inhibitory concentration (IC50) is 10 to 60 nM in assay [6], 800 nM in assay [4] (setting [7]) and 69 nM in assay [4] (setting [8]). In addition, the “time dependence of inhibition” value in assay [4] (setting [9]) is “time-dependent inhibition”. In assay [4], the “mechanism of inhibition with respect to squalene substrate” value is “non-competitive inhibition”.

Consider `CN(C/C=C/C#CC(C)(C)C)Cc1cccc2ccccc12` [terbinafine], for which the inhibition at 100 µM in assay [1] (HLM assay, at 100 µM inhibitor concentration, read-out: maximal inhibition) is 65%.

As to `CCN(C/C=C/C#CC(C)(C)C)Cc1cccc(OCc2cc(-c3ccccc3)cs2)c1` [NB-598.ia], the IC50 in assay [4] (setting [8]) is more than 100000 nM.

In the case of `CCN(C/C=C/C#CC(C)(C)C)Cc1cccc(OCc2cc(-c3ccsc3)cs2)c1` [NB-598], the “mechanism of action (previous report)” value in assay [6] is listed as “competitive”. The IC50 is 10 to 60 nM in assay [6]; 120 nM in assay [4] (setting [7]); 30 nM in assay [4] (IC50, time-dependent inhibition, upon increasing incubation time, compound incubation time varied from 0 to 6 h, final value, 15 min reaction); 63 nM in assay [4] (setting [8]). In addition, the “time dependence of inhibition” value in assay [4] (setting [9]) is recorded as “time-dependent inhibition”. Moreover, the “mechanism of inhibition with respect to squalene substrate” value in assay [4] is “non-competitive inhibition”.

Consider `CCN(CC#CC#CC(C)(C)OC)Cc1cccc(OC[Si](C)(C)c2cccc(C)c2)c1` [Cmpd-4′′.ia], for which the IC50 in assay [4] (setting [8]) was more than 100000 nM.
